Measurements published in patent US20240342148A1, “METHODS OF TREATING FACIOSCAPULOHUMERAL MUSCULAR DYSTROPHY WITH LOSMAPIMOD” (Fulcrum Therapeutics, Inc., priority 2021, published 2024).
Several values for one entry are separate records, joined by “and”; a condition that tells them apart may be missing. Identical values can stand only once.

How the values were obtained:
patients with FSHD1 = test: Wearable sensor (Actimyo) physical activity, open label study; assay type: in vivo, human; conditions: over 1 year treatment; Mild or Upper group compared to Lower or Both group
Procedure: This study evaluated feasibility to monitor daily activity and assess functional outcomes using wearable sensor devices in an open label study (OLS) of losmapimod in facioscapulohumeral muscular dystrophy (FSHD). 14 patients with FSHD1 received 15 mg losmapimod twice per day for a 52 week open label treatment period.
Feasibility was measured by the reliability of the data over time and amount of background noise. The secondary objective was patients' compliance with using the wearable device.
Upper limb and lower limb mobility were evaluated with “Actimyo” made by Sysnav. Actimyo quantifies movements of patients with neuromuscular disorders such as Duchenne muscular dystrophy (DMD), Spinal amyotrophy (SMA), Parkinson's and records activity based on magneto-inertial navigation. Raw data from the sensors are loaded on to the internal memory of the docking station/charging unit, and transmitted daily via an internet connection to a remote storage platform. Participants are provided with two watch like sensors to measure movements: On the ankle for lower extremity movements like gait; and On the wrist for upper extremity movements like mobility. Two kinds of movements were evaluated: Free living movement, which was recorded by wearing two devices all day (12-16 hours); and Imposed movements (2 times per day), which were a set of movements evaluated twice daily.

subjects with FSHD [1] = test: FSHD-TUG; set-up: species or system human; conditions: in vivo
Procedure: (§1) TUG assessments were performed at all visits, except for Wk16. The TUG test is a simple test that is used to assess a subject's mobility and requires both static and dynamic balance. TUG is a validated instrument that measures the time that a person takes to rise from a chair, walk 3 meters, turn around, walk back to the chair, and sit down. Subjects used their regular footwear, and their customary walking aid (no walkers allowed). Patients were also timed in a modified test (FSHD TUG), where they started from a supine position, then sat up, completed the TUG, and lay down again.

subjects with FSHD [2] = test: Hand-held dynamometry, maximum voluntary isometric contraction (MVICT); assay type: in vivo, human
Procedure: Quantitative isometric dynamometry strength assessments were performed at all visits, except for Week 16. The MicroFET2 hand-held dynamometer was used to measure strength in the bilateral shoulders, elbow flexors and extensors, and ankle dorsiflexors. The Jamar Plus Digital Hand Dynamometer was used to measure bilateral grip strengths. Standard physical therapy techniques were used. Assessment of maximum voluntary isometric contraction (MVICT) was conducted with a hand-held dynamometer.

subjects with FSHD [3] = test: Motor Function Measure Domain 1 (MFM); set-up: species or system human; conditions: in vivo
Procedure: MFM domain 1 assessments were performed at all visits, except for those on Wk4 and Wk16. The MFM scale assesses the severity of motor deficit. Domain 1 of the MFM provides an assessment of functional impairment for standing and transfers.

[4] = test system: DUX4-regulated gene transcripts; test: DUX4-regulated transcript analysis by RT-qPCR in muscle biopsies (primary endpoint); assay type: in vivo, human; conditions: log 2 scale
Procedure: All efficacy analyses were performed using the full analysis set (FAS), according to the randomized treatment group. The primary endpoint, change from baseline in DUX4 activity (DUX4 Score 1), was analyzed using the analysis of covariance approach, with treatment group and FSHD repeat number category (1 to 3 repeats versus 4 to 9 repeats) as fixed effects, and baseline DUX4 Score 1 as a covariate. Multiplicity adjustment was not performed, as the primary endpoint was not met.
Muscle needle biopsies were performed using the Bergstrom needle or fine needle at D1 and Wk16, or Wk36 if the muscle biopsy could not be performed at Wk16. The choice of the muscle(s) to be biopsied was determined by the investigator, informed by MRI taken during screening. […] The bilateral vastus lateralis, vastus medialis, lateral gastrocnemius, medial gastrocnemius, and tibialis anterior were evaluated for eligibility by MRI using a central reader. […]
The muscle tissue collected at each muscle needle biopsy (D1 and Wk16 or Wk36) was analyzed for DUX4 activity using a molecular panel of DUX4-regulated gene transcripts (CCNA1, KHDC1L, MBD312, PRAMEF6, SLC34A2 and ZSCAN4, with TBP, HMBS, CDKN1B as reference genes). Raw Cycle Thresholds (Cts) from quantitative polymerase chain reaction (qPCR) were determined for DUX4 regulated genes using a validated assay (Fluidigm). […]

subjects with FSHD [5] = test: Patients' Global Impression of Change (PGIC); assay type: in vivo, human; conditions: Wk48
Procedure: The Patients' Global Impression of Change (PGIC) Questionnaire was administered at every visit after baseline. Subjects were asked to rate their overall status since the start of the study on a scale from 1 (very much improved) to 7 (very much worse). The PGIC scale has been validated in several other indications and is recommended by the FDA for use as a meaningful measure of within-patient change.

[6] = Plasma losmapimod concentrations (PK), Phase 2b RCT; assay type: in vivo, human; conditions: 15 mg orally BID
Procedure: Blood samples for PK assessment (plasma losmapimod concentrations) were collected at D1, Wk4, Wk16, and Wk36 at the following time points: immediately pre-dose and 4 hours (±30 minutes) after administration of the study dose (approximate Cmax). PK samples were also taken, when feasible, after dosing during the Wk12, Wk24, and Wk48 visits, preferably ≥1 hour after dosing.
Plasma and muscle losmapimod concentrations were measured by 2 validated bioanalytical high-performance liquid chromatography methods by PPD, USA (PPD 2019).

subjects with FSHD [7] = test: Timed Up and Go (TUG); assay type: in vivo, human; conditions: nonsignificant
Procedure: as §1

Cc1c(F)cc(C(=O)NC2CC2)cc1-c1ccc(C(=O)NCC(C)(C)C)cn1 [losmapimod, 6-(5-cyclopropylcarbamoyl-3-fluoro-2-methyl-phenyl)-N-(2,2-dimethylpropyl-)-nicotinamide]
Physical function as measured by gait velocity (patients with FSHD1): tends to increase | FSHD-TUG vs placebo (subjects with FSHD [1]): no difference | MVICT strength change, ankle dorsiflexors, left ankle (subjects with FSHD [2]; Wk48, post-hoc): 27.17% | MVICT strength change, ankle dorsiflexors, right ankle (subjects with FSHD [2]; Wk48, post-hoc): 12.72% | MVICT strength change, shoulder abductors, non-dominant shoulder (subjects with FSHD [2]; Wk48, post-hoc): 17.85% | MVICT strength change, shoulder abductors, dominant shoulder (subjects with FSHD [2]; Wk48, post-hoc, ns): −3.79% | MVICT difference vs placebo, non-dominant shoulder (subjects with FSHD [2]; Wk48, post-hoc, p<0.01): 34.89 | MVICT difference vs placebo, right ankle (subjects with FSHD [2]; Wk48, post-hoc, p<0.05): 38.39 | MVICT difference vs placebo, left ankle (subjects with FSHD [2]; Wk48, post-hoc, p=0.11): 37.37 | Average or MVICT in other muscle groups (bilateral hand grip, elbow flexors or extensors) (subjects with FSHD [2]; vs placebo): No difference | MFM total score vs placebo (subjects with FSHD [3]): no difference | Change in DUX4 activity, difference losmapimod vs placebo ([4]; 95% CI −1.04, 1.89, p=0.56): 0.43 | Change from baseline in DUX4 activity ([4]; combined Wk16 or Wk36 muscle biopsies): 0.83 | Patients reporting feeling very much worse on PGIC (6-7 in Likert scale) (subjects with FSHD [5]): No losmapimod treated patients | Patients reporting improvement on PGIC (1-3 in Likert scale) (subjects with FSHD [5]): 27.5% and ~20% | PGIC difference compared to placebo (subjects with FSHD [5]; 1-7 Likert scale, p=0.02): 0.58 | Plasma concentrations of losmapimod pre-dose ([6]; pre-dose): 25.2 to 34.4 ng/mL | Cmax at 4 h ([6]; human, plasma, po, 4 h post-dose, read-out: Plasma concentrations of losmapimod 4 h post-dose (approximate Cmax)): 66.4 to 91.8 ng/mL | Progression in TUG time (subjects with FSHD [7]): 0.16 s | TUG time difference vs placebo (subjects with FSHD [7]): 0.58 s
